Literature values, collected in US20050209315A1, “Bioavailable nutritional supplement and method of treatment of malabsorption” (priority 2004, published 2005).

Details: relative to alpha tocopherol

alpha-tocotrienol [Alpha tocotrienol]
more antioxidant activity than alpha tocopherol: 40-60%
